Results reported in publication PMC11822212, “High-throughput screening identifies Aurora kinase B as a critical therapeutic target for Merkel cell carcinoma” (Nature Communications, 2025).
Structures can show the parent of a compound that is named as a salt. Where two headings read alike, the source gives them in different places.

Legend:
[1] = system: VN-MCC cell lines (MCC13, MCC26, UISO); assay: qHTS cell viability, VN-MCC cell lines as a group (mean AUC, VN.MCC.avg); assay type: cell-based, human
[2] = system: VP-MCC cell lines (WAGA, MKL-1, MKL-2); assay: qHTS cell viability, VP-MCC cell lines as a group (mean AUC, VP.MCC.avg); assay type: cell-based, human
[3] = system: six MCC cell lines and four control cell lines; assay: qHTS cell viability, all 10 cell lines screened; assay type: cell-based
[4] = system: NIH-3T3 cells; assay: qHTS cell viability (CellTiter-Glo, 72 h; primary screen), control cell line; assay type: cell-based, mouse
[5] = system: WAGA cells (VP-MCC); assay: qHTS cell viability (CellTiter-Glo, 72 h; primary and follow-up small molecule screen); assay type: cell-based, human
[6] = system: CRL-7250 cells; assay: qHTS cell viability (CellTiter-Glo, 72 h; primary screen), control cell line; assay type: cell-based
[7] = system: MKL-2 cells (VP-MCC); assay: qHTS cell viability (CellTiter-Glo, 72 h; primary and follow-up small molecule screen); assay type: cell-based, human
[8] = system: HACAT cells; assay: qHTS cell viability (CellTiter-Glo, 72 h; primary screen), control cell line; assay type: cell-based, human
[9] = system: HEK293T cells; assay: as above; assay type: cell-based, human
[10] = system: UISO cells (VN-MCC); assay: qHTS cell viability (CellTiter-Glo, 72 h; primary and follow-up small molecule screen); assay type: cell-based, human
[11] = system: MCC13 cells (VN-MCC); assay: as above; assay type: cell-based, human
[12] = system: MKL-1 cells (VP-MCC); assay: as above; assay type: cell-based, human
[13] = system: MCC26 cells (VN-MCC); assay: as above; assay type: cell-based, human
[14] = primary high-throughput screen, viability 72 h, n = 1

Structure (SMILES): CCC(=O)C(CC(C)N(C)C)(c1ccccc1)c1ccccc1 (stereo not drawn) [Methadone hydrochloride]
- Control-VN-MCC [1]: 44.0199
- Control-VP-MCC [2]: 55.4471
- Control-MCC [3]: 49.7335

Structure (SMILES): CCCCCCCCCCCC1=C(O)C(=O)C=C(O)C1=O [Embelin]
- NIH3T3_AUC ([4]; area under the dose-response curve, NIH3T3 control cells, AUC<450 = reduced viability): 468.399
- WAGA_AUC ([5]; area under the dose-response curve, WAGA cells, AUC<450 = reduced viability): 416.987
- Area under the dose-response curve (AUC) WAGA Replicate 1 ([5]; follow-up screen, WAGA, replicate 1): 543.3
- Area under the dose-response curve (AUC) WAGA Replicate 2 ([5]; follow-up screen, WAGA, replicate 2): 384.9
- Area under the dose-response curve (AUC) WAGA Replicate 3 ([5]; follow-up screen, WAGA, replicate 3): 441.0
- CRL7250_AUC ([6]; area under the dose-response curve, CRL7250 control cells, AUC<450 = reduced viability): 461.338
- MKL2_AUC ([7]; area under the dose-response curve, MKL-2 cells, AUC<450 = reduced viability): 427.936
- Area under the dose-response curve (AUC) MKL-2 Replicate 1 ([7]; follow-up screen, MKL-2, replicate 1): 476.0
- Area under the dose-response curve (AUC) MKL-2 Replicate 2 ([7]; follow-up screen, MKL-2, replicate 2): 454.8
- Area under the dose-response curve (AUC) MKL-2 Replicate 3 ([7]; follow-up screen, MKL-2, replicate 3): 454.5
- HACAT_AUC ([8]; area under the dose-response curve, HACAT control cells, AUC<450 = reduced viability): 451.959
- HEK293T_AUC ([9]; area under the dose-response curve, HEK293T control cells, AUC<450 = reduced viability): 470.759
- UISO_AUC ([10]; area under the dose-response curve, UISO cells, AUC<450 = reduced viability): 474.744
- Area under the dose-response curve (AUC) UISO Replicate 1 ([10]; follow-up screen, UISO, replicate 1): 471.2
- Area under the dose-response curve (AUC) UISO Replicate 2 ([10]; follow-up screen, UISO, replicate 2): 418.0
- Area under the dose-response curve (AUC) UISO Replicate 3 ([10]; follow-up screen, UISO, replicate 3): 438.8
- MCC13_AUC ([11]; area under the dose-response curve, MCC13 cells, AUC<450 = reduced viability): 489.799
- Area under the dose-response curve (AUC) MCC13 Replicate 1 ([11]; follow-up screen, MCC13, replicate 1): 496.2
- Area under the dose-response curve (AUC) MCC13 Replicate 2 ([11]; follow-up screen, MCC13, replicate 2): 470.6
- Area under the dose-response curve (AUC) MCC13 Replicate 3 ([11]; follow-up screen, MCC13, replicate 3): 448.5
- MKL1_AUC ([12]; area under the dose-response curve, MKL-1 cells, AUC<450 = reduced viability): 418.887
- Area under the dose-response curve (AUC) MKL-1 Replicate 1 ([12]; follow-up screen, MKL-1, replicate 1): 561.5
- Area under the dose-response curve (AUC) MKL-1 Replicate 2 ([12]; follow-up screen, MKL-1, replicate 2): 475.0
- Area under the dose-response curve (AUC) MKL-1 Replicate 3 ([12]; follow-up screen, MKL-1, replicate 3): 443.8
- MCC26_AUC ([13]; area under the dose-response curve, MCC26 cells, AUC<450 = reduced viability): 492.758
- Area under the dose-response curve (AUC) MCC26 Replicate 1 ([13]; follow-up screen, MCC26, replicate 1): 439.2
- Area under the dose-response curve (AUC) MCC26 Replicate 2 ([13]; follow-up screen, MCC26, replicate 2): 416.6
- Area under the dose-response curve (AUC) MCC26 Replicate 3 ([13]; follow-up screen, MCC26, replicate 3): 455.7

Structure (SMILES): CCc1c2c(nc3ccc(OC(=O)N4CCC(N5CCCCC5)CC4)cc13)-c1cc3c(c(=O)n1C2)COC(=O)[C@]3(O)CC.Cl [Irinotecan hydrochloride]
- Control-VN-MCC [1]: 24.3005
- Control-VP-MCC [2]: 114.533
- Control-MCC [3]: 69.4165

Structure (SMILES): CC(N[C@H]1CCCC[C@@H]1NC(=O)c1ccc(Cl)cc1)c1cccc2ccccc12 (stereo partly drawn) [Calhex-231]
- NIH3T3_AUC [4]: 459.862
- WAGA_AUC [5]: 428.682
- CRL7250_AUC [6]: 474.743
- MKL2_AUC [7]: 347.428
- HACAT_AUC [8]: 466.353
- HEK293T_AUC [9]: 469.437
- UISO_AUC [10]: 470.957
- MCC13_AUC [11]: 461.512
- MKL1_AUC [12]: 380.302
- MCC26_AUC [13]: 461.125

Structure (SMILES): C[N+]1(C)[C@@H]2C[C@@H](OC(=O)[C@H](CO)c3ccccc3)C[C@H]1[C@@H]1O[C@@H]12 [Scopolamine methylbromide, reference compound]
- Area under the dose-response curve (AUC) NIH3T3 [4, 14]: 468.1
- Area under the dose-response curve (AUC) WAGA [5, 14]: 491.2
- Area under the dose-response curve (AUC) CRL7250 [6, 14]: 474.6
- Area under the dose-response curve (AUC) MKL-2 [7, 14]: 496.7
- Area under the dose-response curve (AUC) HACAT [8, 14]: 476.9
- Area under the dose-response curve (AUC) HEK293T [9, 14]: 479.5
- Area under the dose-response curve (AUC) UISO [10, 14]: 492.6
- Area under the dose-response curve (AUC) MCC13 [11, 14]: 481.8
- Area under the dose-response curve (AUC) MKL-1 [12, 14]: 484.0
- Area under the dose-response curve (AUC) MCC26 [13, 14]: 475.2

Structure (SMILES): CCOC(=O)N1CCC(=C2c3ccc(Cl)cc3CCc3cccnc32)CC1 [Loratadine]
- Control-VN-MCC ([1]; NPC library, therapeutic window: Control avg AUC minus VN-MCC avg AUC): 36.1824
- Control-VP-MCC ([2]; NPC library, therapeutic window: Control avg AUC minus VP-MCC avg AUC): 67.0216
- Control-MCC ([3]; NPC library, therapeutic window: Control avg AUC minus MCC avg AUC): 51.602
